Measured values: patent US10287269B2, “Pyrazolyl pyrimidinone compounds as PDE2 inhibitors” (Merck Sharp & Dohme Corp., priority 2015, dated 2019)
Like-named read-outs stand apart in the source and are kept apart here.

Target: T1, Rhesus PDE2A3 (Macaca mulatta, UniProt B3VTJ2)
T1 construct: made in house; host or cells: AD293 cells, transient transfection, pcDNA3.3-TOPO; lysate supernatant used as enzyme
T1 sequence (B3VTJ2 1-941): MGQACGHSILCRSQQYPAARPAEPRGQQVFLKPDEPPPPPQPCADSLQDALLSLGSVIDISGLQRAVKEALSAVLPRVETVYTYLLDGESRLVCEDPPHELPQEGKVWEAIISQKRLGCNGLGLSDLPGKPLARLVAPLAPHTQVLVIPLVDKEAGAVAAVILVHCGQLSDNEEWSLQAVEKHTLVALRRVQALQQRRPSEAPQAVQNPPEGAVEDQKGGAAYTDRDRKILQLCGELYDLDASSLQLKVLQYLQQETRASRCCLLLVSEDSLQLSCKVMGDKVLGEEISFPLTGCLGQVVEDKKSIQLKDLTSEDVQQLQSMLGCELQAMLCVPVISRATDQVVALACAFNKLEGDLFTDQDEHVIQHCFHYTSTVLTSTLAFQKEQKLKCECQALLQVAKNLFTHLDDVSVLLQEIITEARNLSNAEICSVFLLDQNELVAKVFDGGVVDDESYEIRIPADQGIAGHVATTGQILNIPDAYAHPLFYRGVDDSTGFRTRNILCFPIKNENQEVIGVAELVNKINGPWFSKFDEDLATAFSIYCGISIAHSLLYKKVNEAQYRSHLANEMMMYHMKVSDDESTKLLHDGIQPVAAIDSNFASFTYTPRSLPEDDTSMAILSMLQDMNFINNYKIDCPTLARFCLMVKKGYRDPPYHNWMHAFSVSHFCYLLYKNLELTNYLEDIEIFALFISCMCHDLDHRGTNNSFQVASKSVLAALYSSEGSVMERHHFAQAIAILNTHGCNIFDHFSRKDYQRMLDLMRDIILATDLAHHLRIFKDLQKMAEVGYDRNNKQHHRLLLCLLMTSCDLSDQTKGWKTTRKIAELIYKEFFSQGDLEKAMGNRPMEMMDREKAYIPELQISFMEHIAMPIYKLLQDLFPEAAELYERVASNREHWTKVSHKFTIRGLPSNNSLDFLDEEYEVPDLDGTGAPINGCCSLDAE
Experiment: PDE2 fluorescence polarization (IMAP FP) inhibition assay, rhesus enzyme
Assay type: biochemical, rhesus macaque
In short: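 Lysate of AD293 cells transiently expressing rhesus PDE2A3, diluted for ~20% substrate conversion, with 50 nM FAM-cAMP and 1 uM cGMP activator in pH 7.2 Tris/MgCl2 buffer, 60 min at room temperature.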

[1] = Lab A, read-out: Rhesus PDE2 Ki (nM) Lab A
[2] = Lab B, read-out: Rhesus PDE2 Ki (nM) Lab B

Row | Compound | Ki [1] [nM] | Ki [2] [nM]
1 | Cc1nc(-c2cnn(C(C)c3ccc(S(F)(F)(F)(F)F)cc3)c2)cc(=O)[nH]1 (single isomer, unassigned) [Example 62, (R)- or (S)-2-methyl-6-(1-(1-(4-(pentafluorosulfanyl)phenyl)ethyl)-1H-pyrazol-4-yl)pyrimidin-4(3H)-one] |  | 143
2 | Cc1nc(-n2cc([C@H](CO)c3ccc(C(F)(F)F)cc3F)cn2)cc(=O)[nH]1 (single isomer, unassigned) [Example 20] |  | 18.2
3 | COc1ccc(Cc2nc(-c3cnn(C(C)c4ccc(C(F)(F)F)cc4F)c3)cc(=O)[nH]2)cc1OC (single isomer, unassigned) [Example 66, (R)- or (S)-2-(3,4-dimethoxybenzyl)-6-(1-(1-(2-fluoro-4-(trifluoromethyl)phenyl)ethyl)-1H-pyrazol-4-yl)pyrimidin-4(3H)-one] |  | 0.8
4 | CCC(c1ccc(C(F)(F)F)cc1)c1cnn(-c2cc(=O)[nH]c(C)n2)c1 (stereo not drawn) [Example 129, 2-methyl-6-(4-(1-(4-(trifluoromethyl)phenyl)propyl)-1H-pyrazol-1-yl)pyrimidin-4(3H)-one] |  | 184
5 | COc1cccc(Cc2nc(-c3cnn(C(C)c4ccc(C(F)(F)F)cc4F)c3)cc(=O)[nH]2)c1 (single isomer, unassigned) [Example 140, (R)- or (S)-6-(1-(1-(2-fluoro-4-(trifluoromethyl)phenyl)ethyl)-1H-pyrazol-4-yl)-2-(3-methoxybenzyl)pyrimidin-4(3H)-one] | 3 | 0.8
6 | Cc1nc(-c2cnn(C(C)c3ccc(C(F)(F)F)cc3)c2)cc(=O)[nH]1 (stereo not drawn) [Example 126, 2-methyl-6-(1-(1-(4-(trifluoromethyl)phenyl)ethyl)-1H-pyrazol-4-yl)pyrimidin-4(3H)-one] |  | 306
7 | Cc1nc(-n2cc(C3(C)OCc4cc(C(F)(F)F)ccc43)cn2)cc(=O)[nH]1 (single isomer, unassigned) [Example 27] |  | 98
8 | COc1ccc(Cc2nc(-c3cnn(C(C)c4ccc(S(F)(F)(F)(F)F)cc4)c3)cc(=O)[nH]2)cc1OC (single isomer, unassigned) [Example 64, (R)- or (S)-2-(3,4-dimethoxybenzyl)-6-(1-(1-(4-(pentafluorosulfanyl)phenyl)ethyl)-1H-pyrazol-4-yl)pyrimidin-4(3H)-one] | 7.2 | 3.5
9 | COc1cccc(Cc2nc(-c3cnn(C(C)c4ccc(C(F)(F)F)cc4F)c3)cc(=O)[nH]2)c1 (single isomer, unassigned) [Example 141, (S)- or (R)-6-(1-(1-(2-fluoro-4-(trifluoromethyl)phenyl)ethyl)-1H-pyrazol-4-yl)-2-(3-methoxybenzyl)pyrimidin-4(3H)-one] | 25.6 | 8.7
10 | Cc1nc(-c2cnn(C(c3ccc(C(F)(F)F)cc3F)C(C)C)c2)cc(=O)[nH]1 (stereo not drawn) [Example 34, 6-(1-(1-(2-fluoro-4-(trifluoromethyl)phenyl)-2-methylpropyl)-1H-pyrazol-4-yl)-2-methylpynmidin-4(3H)-one] | 54.6 | 26.9
11 | Cc1nc(-n2cc([C@](C)(O)c3ccc(C(F)(F)F)cc3F)cn2)cc(=O)[nH]1 (single isomer, unassigned) [Example 15] |  | 15.6
12 | Cc1nc(-n2cc(Cc3ccc(OC(F)(F)F)cc3)cn2)cc(=O)[nH]1 [Example 30, 2-Methyl-6-(4-(4-(trifluoromethoxy)benzyl)-1H-pyrazol-1-yl)pyrimidin-4(3H)-one] |  | 2940
13 | COc1ccc(Cc2nc(-c3cnn(C(C)c4ccc(C(F)(F)F)cc4F)c3)cc(=O)[nH]2)cc1F (single isomer, unassigned) [Example 146, (R)- or (S)-6-(1-(1-(2-fluoro-4-(trifluoromethyl)phenyl)ethyl)-1H-pyrazol-4-yl)-2-(3-fluoro-4-methoxybenzyl)pyrimidin-4(3H)-one] | 31.5 | 
14 | CCc1ccc(C(C)n2cc(-c3cc(=O)[nH]c(C)n3)cn2)c(Cl)c1 (single isomer, unassigned) [Example 99, (R)- or (S)-6-(1-(1-(2-chloro-4-ethylphenyl)ethyl)-1H-pyrazol-4-yl)-2-methylpyrimidin-4(3H)-one] | 10.7 | 

Further lines, results first:

Row | Ki [1] [nM] | Ki [2] [nM] | Compound
15 | 52.1 | 19.1 | COc1ccc(Cc2nc(-c3cnn(C(C)c4ccc(C(F)(F)F)cc4F)c3)cc(=O)[nH]2)cc1 (single isomer, unassigned) [Example 139, (S)- or (R)-6-(1-(1-(2-fluoro-4-(trifluoromethyl)phenyl)ethyl)-1H-pyrazol-4-yl)-2-(4-methoxybenzyl)pyrimidin-4(3H)-one]
16 |  | 75.8 | Cc1nc(-n2cc([C@](C)(O)c3ccc(C(F)(F)F)cc3F)cn2)cc(=O)[nH]1 (single isomer, unassigned) [Example 16]
17 | 2 | 1.8 | COc1ccc(Cc2nc(-c3cnn(C(C)c4ccc(C(F)(F)F)cc4)c3)cc(=O)[nH]2)cc1OC (single isomer, unassigned) [Example 61, (S)- or (R)-2-(3,4-dimethoxybenzyl)-6-(1-(1-(4-(trifluoromethyl)phenyl)ethyl)-1H-pyrazol-4-yl)pyrimidin-4(3H)-one]
18 | 47.9 |  | Cc1ccc(C(C)n2cc(-c3cc(=O)[nH]c(C)n3)cn2)c(Cl)c1 (single isomer, unassigned) [Example 148, (R)- or (S)-6-(1-(1-(2-chloro-4-methylphenyl)ethyl)-1H-pyrazol-4-yl)-2-methylpyrimidin-4(3H)-one]
19 | 13.1 | 13 | Cc1nc(-c2cnn(C(C)c3ccc(C(F)(F)F)cc3C)c2)cc(=O)[nH]1 (single isomer, unassigned) [Example 57, (S)- or (R)-2-methyl-6-(1-(1-(2-methyl-4-(trifluoromethyl)phenyl)ethyl)-1H-pyrazol-4-yl)pyrimidin-4(3H)-one]
20 |  | 194 | Cc1nc(-c2cn(C(C)c3ccc(C(F)(F)F)cc3)nc2C)cc(=O)[nH]1 (stereo not drawn) [Example 80, 2-methyl-6-(3-methyl-1-(1-(4-(trifluoromethyl)phenyl)ethyl)-1H-pyrazol-4-yl)pyrimidin-4(3H)-one]
21 | 36.6 | 19.7 | CCC(c1ccc(C(F)(F)F)cc1F)n1cc(-c2cc(=O)[nH]c(C)n2)cn1 (stereo not drawn) [Example 33, 6-(1-(1-(2-fluoro-4-(trifluoromethyl)phenyl)propyl)-1H-pyrazol-4-yl)-2-methylpyrimidin-4(3H)-one]
22 | 6.2 |  | Cc1nc(-c2cnn(C(C)c3ccc(C(F)(F)F)cc3Cl)c2)cc(=O)[nH]1 (single isomer, unassigned) [Example 83, (R)- or (S)-6-(1-(1-(2-chloro-4-(trifluoromethyl)phenyl)ethyl)-1H-pyrazol-4-yl)-2-methylpyrimidin-4(3H)-one]
23 | 25.7 |  | CCc1nc(-c2cnn(C(C)c3ccc(C(F)(F)F)cc3F)c2)cc(=O)[nH]1 (stereo not drawn) [Example 36, 2-ethyl-6-(1-(1-(2-fluoro-4-(trifluoromethyl)phenyl)ethyl)-1H-pyrazol-4-yl)pyrimidin-4(3H)-one]
24 | 1.3 | 0.6 | COc1ccc(Cc2nc(-n3cc(C(C)c4ccc(C(F)(F)F)cc4)cn3)cc(=O)[nH]2)cc1OC (stereo not drawn) [Example 137, 2-(3,4-dimethoxybenzyl)-6-(4-(1-(4-(trifluoromethyl)phenyl)ethyl)-1H-pyrazol-1-yl)pyrimidin-4(3H)-one]
